The text below walks through data of patent US20080226718A1, “Indole and Azaindole Derivatives For the Treatment of Inflammatory and Autoimmune Diseases” (Brane Discovery S.r.l, priority 2005, published 2008).

SMILES strings stand for the structures.

Assay type in all cases: cell-based, SJL mice
Assay [1] relates to encephalitogenic lymphocytes. The assay can be described thus: Spontaneous adhesion of encephalitogenic T cells on purified VCAM-1. Conditions: Mus musculus, Lymphocyte, 1 h; for inhibition at 5 µM: [cpd] 5 μM, read-out: Inhibition of Spontaneous Adhesion in encephalitogenic lymphocytes (% of control/non-treated cells) VCAM-1; for inhibition at 10 µM: [cpd] 10 μM; for inhibition at 10 µM / inhibition at 25 µM / inhibition at 50 µM: read-out: Inhibition of Spontaneous Adhesion in encephalitogenic lymphocytes (% of control/non-treated cells) VCAM-1 (converted); for inhibition at 25 µM: [cpd] 25 μM; for inhibition at 50 µM: [cpd] 50 μM. The protocol: Spontaneous adhesion of encephalitogenic lymphocytes was measured in adhesion assays on purified ICAM-1 and VCAM-1 as previously described (Constantin G. et al., J. Immunol. 162, 1144-1149, 1999). Autoreactive T cells were obtained from SJL mice immunized with PLP139-151 as described (Piccio L. et al., J. Immunol. 168, 1940-1949, 2002). Lymphocytes were treated with test compound at concentrations between 5-100 μM for 1 h, while control/untreated cells were treated with vehicle (DMSO). Results are expressed as percentage of inhibition over control (=100%) ±S.D and are the mean of three-four experiments.
ICAM-1 and VCAM-1 are adhesion molecules from the family of immunoglobulins and control the migration of lymphocytes through the endothelium during inflammatory responses. Encephalitogenic T cells are activated lymphocytes displaying spontaneous adhesion on ICAM-1 and VCAM-1 and have increased migration capacities in inflammation sites. Spontaneous adhesion of encephalitogenic lymphocytes was measured in adhesion assays on purified ICAM-1 and VCAM-1 as described in the method.

For assay [2], the system named is encephalitogenic lymphocytes. The assay can be described thus: Spontaneous adhesion of encephalitogenic T cells on purified ICAM-1. Conditions: Mus musculus, Lymphocyte, 1 h; for inhibition at 5 µM: [cpd] 5 μM, read-out: Inhibition of Spontaneous Adhesion in encephalitogenic lymphocytes (% of control/non-treated cells) ICAM-1; for inhibition at 10 µM: [cpd] 10 μM; for inhibition at 10 µM / inhibition at 25 µM / inhibition at 50 µM / inhibition at 100 µM: read-out: Inhibition of Spontaneous Adhesion in encephalitogenic lymphocytes (% of control/non-treated cells) ICAM-1 (converted); for inhibition at 25 µM: [cpd] 25 μM; for inhibition at 50 µM: [cpd] 50 μM; for inhibition at 100 µM: [cpd] 100 μM. A digest of the protocol:
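Autoreactive T cells came from SJL mice immunized with PLP139-151. Cells were pretreated for 1 h with compound at 5-100 μM or DMSO vehicle, then tested for spontaneous adhesion to purified ICAM-1 or VCAM-1. Inhibition is given as percent of vehicle control (100%), mean ± S.D. of three-four experiments.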

The subject of assay [3] is encephalitogenic lymphocytes. Kind of assay: Chemokine-induced adhesion of murine encephalitogenic T cells to ICAM-1. As to conditions: for Block of chemokine-induced autoreactive lymphocyte adhesion, in words: 5-50 μM for 1 h, 1 μM CCL19; for Chemokine-induced Adhesion in encephalitogenic lymphocytes, Mean counts ± S.D., in presence of MIP3-β stimulation: 1 μM CCL19 (MIP-3beta); for Chemokine-induced Adhesion in encephalitogenic lymphocytes, Mean counts ± S.D., in presence of MIP3-β stimulation / Adhesion in encephalitogenic lymphocytes, Mean counts ± S.D., in absence of MIP3-β stimulation: ICAM-1. A digest of the protocol: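 Murine PLP139-151-reactive T cells from immunized SJL mice were pretreated with compound (5-50 μM, 37° C., 30-60 min or 1 h), then stimulated with 1 μM CCL19 (2-3 min, static) on ICAM-1-coated glass. Bound cells counted after washing and fixation; values are mean counts ±S.D of three experiments.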

As for `COc1ccc(-c2c(C#N)[nH]c3cc(OC)c(OC)cc23)cc1` [Example 17], in assay [1], the inhibition at 5 µM was determined as 34%, the inhibition at 10 µM is 53%, the inhibition at 25 µM is 71.5% and the inhibition at 50 µM is 89%. In addition, in assay [2], the inhibition at 5 µM worked out at 72.8%, the inhibition at 10 µM was 72.5%, the inhibition at 25 µM was 76% and the inhibition at 50 µM is 92%. Moreover, in assay [2], the inhibition at 100 µM was 99%. Further, the “Block of chemokine-induced autoreactive lymphocyte adhesion, in words” value (from here on “Block”) in assay [3] is recorded as “almost complete block”. For the same molecule, in assay [3] ([cpd] 5 μM), the “Chemokine-induced Adhesion in encephalitogenic lymphocytes, Mean counts ± S.D., in presence of MIP3-β stimulation” value (from here on “Chemokine-induced Adhesion”) stood at 13.6 ± 3.5 and the “Adhesion in encephalitogenic lymphocytes, Mean counts ± S.D., in absence of MIP3-β stimulation” value (“Adhesion … in absence of MIP3-β stimulation” for short) was determined as 2.0 ± 1.0. Further, in assay [3] ([cpd] 10 μM), the “Chemokine-induced Adhesion” value is reported as 10.0 ± 3.0 and the “Adhesion … in absence of MIP3-β stimulation” value was 0.9 ± 0.2. In assay [3] ([cpd] 25 μM), the “Chemokine-induced Adhesion” value is 1.8 ± 1.0 and the “Adhesion … in absence of MIP3-β stimulation” value is listed as 0.6 ± 0.5. In assay [3] ([cpd] 50 μM), the “Chemokine-induced Adhesion” value is recorded as 2.1 ± 0.9 and the “Adhesion … in absence of MIP3-β stimulation” value amounted to 0.4 ± 0.1.
As to `COc1ccc(-c2c3n(c4cc(OC)c(OC)cc24)CCNC3=O)cc1` [Example 27], in assay [1], the inhibition at 5 µM stood at 11%, the inhibition at 10 µM was 31%, the inhibition at 25 µM is 35.5% and the inhibition at 50 µM is 82%. Also, in assay [2], the inhibition at 5 µM amounted to 69%, the inhibition at 10 µM was 76%, the inhibition at 25 µM is 82% and the inhibition at 50 µM was 90%. Also, the inhibition at 100 µM in assay [2] was 99%. In assay [3], the “Block” value was “almost complete block”. Also, in assay [3] ([cpd] 5 μM), the “Chemokine-induced Adhesion” value came to 17.7 ± 2.5 and the “Adhesion … in absence of MIP3-β stimulation” value was 5.0 ± 2.2. For the same molecule, in assay [3] ([cpd] 10 μM), the “Chemokine-induced Adhesion” value is given as 18.1 ± 4.3 and the “Adhesion … in absence of MIP3-β stimulation” value was 1.7 ± 1.0. In assay [3] ([cpd] 25 μM), the “Chemokine-induced Adhesion” value came out at 9.3 ± 0.5 and the “Adhesion … in absence of MIP3-β stimulation” value was found to be 1.5 ± 0.1. In assay [3] ([cpd] 50 μM), the “Chemokine-induced Adhesion” value is reported as 5.1 ± 1.1 and the “Adhesion … in absence of MIP3-β stimulation” value is recorded as 1.2 ± 1.1.
With `COc1ccc(-c2c(C#N)n(CCCO)c3cc(OC)c(OC)cc23)cc1` [Example 44], in assay [1], the inhibition at 5 µM turned out to be 29%, the inhibition at 10 µM was 39%, the inhibition at 25 µM is 43% and the inhibition at 50 µM is 84%. Moreover, in assay [2], the inhibition at 5 µM came to 75%, the inhibition at 10 µM is 84%, the inhibition at 25 µM is 88% and the inhibition at 50 µM is 91.5%. For the same molecule, the inhibition at 100 µM in assay [2] is 99%. For the same molecule, in assay [3], the “Block” value was “almost complete block”. Moreover, in assay [3] ([cpd] 5 μM), the “Chemokine-induced Adhesion” value is listed as 2.1 ± 0.5 and the “Adhesion … in absence of MIP3-β stimulation” value is recorded as 1.0 ± 0.9. Further, in assay [3] ([cpd] 10 μM), the “Chemokine-induced Adhesion” value is listed as 3.7 ± 1.1 and the “Adhesion … in absence of MIP3-β stimulation” value was 0.4 ± 1.7. Besides, in assay [3] ([cpd] 25 μM), the “Chemokine-induced Adhesion” value is recorded as 1.8 ± 0.5 and the “Adhesion … in absence of MIP3-β stimulation” value is 0.4 ± 0.1. Besides, in assay [3] ([cpd] 50 μM), the “Chemokine-induced Adhesion” value is 0.1 ± 0.5 and the “Adhesion … in absence of MIP3-β stimulation” value was 0.4 ± 0.5.
